From ChEMBL document CHEMBL3414527, “Engineering potent and selective analogues of GpTx-1, a tarantula venom peptide antagonist of the Na(V)1.7 sodium channel” (J Med Chem, 2015)
pIC50: −log10 of the molar value. Bridge positions count the residues as written; N and C are the ends. Peptide text beside a SMILES is read from it.

target: Sodium channel protein type 5 subunit alpha (Homo sapiens, UniProt Q14524); experiment: Inhibition of human NaV1.5 at -140 mV holding potential by whole-cell patch clamp assay
Sequence (Q14524 whole entry): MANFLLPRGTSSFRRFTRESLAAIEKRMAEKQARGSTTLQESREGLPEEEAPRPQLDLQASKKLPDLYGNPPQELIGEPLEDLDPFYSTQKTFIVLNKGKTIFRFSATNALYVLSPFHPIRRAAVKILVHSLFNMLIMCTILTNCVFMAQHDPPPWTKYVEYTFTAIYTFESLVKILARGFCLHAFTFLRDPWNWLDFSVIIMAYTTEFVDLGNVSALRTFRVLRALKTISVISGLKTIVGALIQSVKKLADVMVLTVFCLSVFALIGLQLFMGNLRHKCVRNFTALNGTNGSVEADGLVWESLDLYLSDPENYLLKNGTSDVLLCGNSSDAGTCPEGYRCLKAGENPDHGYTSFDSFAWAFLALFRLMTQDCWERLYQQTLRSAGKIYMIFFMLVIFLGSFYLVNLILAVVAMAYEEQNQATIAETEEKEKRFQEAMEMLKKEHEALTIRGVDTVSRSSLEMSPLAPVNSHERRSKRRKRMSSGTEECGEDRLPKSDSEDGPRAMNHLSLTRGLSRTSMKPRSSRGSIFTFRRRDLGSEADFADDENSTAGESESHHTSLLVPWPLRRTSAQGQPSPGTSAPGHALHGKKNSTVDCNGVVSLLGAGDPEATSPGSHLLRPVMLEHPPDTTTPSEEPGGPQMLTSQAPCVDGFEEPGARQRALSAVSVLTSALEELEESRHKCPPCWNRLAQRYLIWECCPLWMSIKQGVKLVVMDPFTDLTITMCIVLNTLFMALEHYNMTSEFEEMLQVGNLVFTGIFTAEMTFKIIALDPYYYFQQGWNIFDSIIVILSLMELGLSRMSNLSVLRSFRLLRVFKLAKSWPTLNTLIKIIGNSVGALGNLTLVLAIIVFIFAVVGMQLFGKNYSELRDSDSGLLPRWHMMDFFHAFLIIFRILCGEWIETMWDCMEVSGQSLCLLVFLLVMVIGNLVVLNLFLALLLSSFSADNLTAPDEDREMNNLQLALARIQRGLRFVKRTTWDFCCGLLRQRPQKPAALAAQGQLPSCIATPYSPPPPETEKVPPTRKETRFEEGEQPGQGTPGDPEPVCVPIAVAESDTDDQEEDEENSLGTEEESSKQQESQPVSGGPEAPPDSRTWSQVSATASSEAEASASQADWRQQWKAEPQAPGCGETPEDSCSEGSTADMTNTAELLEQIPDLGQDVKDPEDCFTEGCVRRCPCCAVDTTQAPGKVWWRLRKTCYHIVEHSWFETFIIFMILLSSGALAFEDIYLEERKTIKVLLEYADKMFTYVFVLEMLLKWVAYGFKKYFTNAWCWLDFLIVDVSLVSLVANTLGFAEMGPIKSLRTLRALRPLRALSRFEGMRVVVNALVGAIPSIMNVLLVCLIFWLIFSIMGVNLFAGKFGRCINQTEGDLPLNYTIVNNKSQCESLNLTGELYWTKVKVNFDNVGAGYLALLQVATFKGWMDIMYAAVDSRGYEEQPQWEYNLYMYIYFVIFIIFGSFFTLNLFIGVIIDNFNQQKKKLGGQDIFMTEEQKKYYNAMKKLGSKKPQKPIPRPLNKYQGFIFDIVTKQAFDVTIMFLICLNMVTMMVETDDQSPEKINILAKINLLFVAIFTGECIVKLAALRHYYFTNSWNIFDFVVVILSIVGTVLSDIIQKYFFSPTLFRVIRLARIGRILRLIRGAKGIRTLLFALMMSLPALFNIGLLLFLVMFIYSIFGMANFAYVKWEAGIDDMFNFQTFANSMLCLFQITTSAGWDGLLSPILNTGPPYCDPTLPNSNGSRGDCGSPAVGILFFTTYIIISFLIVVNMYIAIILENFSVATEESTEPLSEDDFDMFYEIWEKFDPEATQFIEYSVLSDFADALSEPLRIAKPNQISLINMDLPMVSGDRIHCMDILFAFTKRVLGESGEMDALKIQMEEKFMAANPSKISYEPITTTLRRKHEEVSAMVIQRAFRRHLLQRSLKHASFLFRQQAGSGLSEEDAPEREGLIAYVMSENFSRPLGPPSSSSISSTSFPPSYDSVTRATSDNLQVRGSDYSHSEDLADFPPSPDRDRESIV

Question: How did the pIC50 turn out when `CC[C@H](C)[C@@H]1NC(=O)[C@@H]2CSSC[C@@H]3NC(=O)[C@H](C(C)C)NC(=O)[C@H](CC(C)C)NC(=O)[C@H](CC(N)=O)NC(=O)[C@@H]4CCCN4C(=O)[C@H](CCCNC(=N)N)NC(=O)[C@H](CSSC[C@H](NC(=O)[C@@H](N)CC(=O)O)C(=O)N[C@@H](CC(C)C)C(=O)NCC(=O)N[C@@H](Cc4ccccc4)C(=O)N[C@@H](CCSC)C(=O)N[C@@H](CCCNC(=N)N)C(=O)N[C@@H](CCCCN)C(=O)N2)NC(=O)[C@H](CSSC[C@@H](C(=O)N[C@@H](CCCCN)C(=O)N[C@@H](Cc2ccc(O)cc2)C(=O)N[C@H](C(=O)N[C@@H](Cc2ccccc2)C(N)=O)C(C)C)NC(=O)[C@H](Cc2c[nH]c4ccccc24)NC(=O)[C@H](CCCCN)NC(=O)[C@H](Cc2cnc[nH]2)NC(=O)[C@H]([C@@H](C)O)NC(=O)[C@H](CCCNC(=N)N)NC(=O)[C@H](CO)NC3=O)NC(=O)[C@H](CCCCN)NC(=O)[C@H](CC(=O)O)NC(=O)[C@H](CC(N)=O)NC(=O)[C@H](C)NC(=O)[C@@H]2CCCN2C1=O` (H-DCLGFMRKCIPANDKCCRPNLVCSRTHKWCKYVF-NH2; disulfide 2-17, 9-23, 16-30) was run?
Answer: < 5.30

Question: `CC[C@H](C)[C@@H]1NC(=O)[C@@H]2CSSC[C@@H]3NC(=O)[C@H](C(C)C)NC(=O)[C@H](CC(C)C)NC(=O)[C@H](CC(N)=O)NC(=O)[C@@H]4CCCN4C(=O)[C@H](CCCNC(=N)N)NC(=O)[C@H](CSSC[C@H](NC(=O)[C@H](C)N)C(=O)N[C@@H](CC(C)C)C(=O)NCC(=O)N[C@@H](Cc4ccccc4)C(=O)N[C@@H](CCSC)C(=O)N[C@@H](CCCNC(=N)N)C(=O)N[C@@H](CCCCN)C(=O)N2)NC(=O)[C@H](CSSC[C@@H](C(=O)N[C@@H](CCCCN)C(=O)N[C@@H](Cc2ccc(O)cc2)C(=O)N[C@H](C(=O)N[C@@H](Cc2ccccc2)C(N)=O)C(C)C)NC(=O)[C@H](Cc2c[nH]c4ccccc24)NC(=O)[C@H](CCCCN)NC(=O)[C@H](Cc2cnc[nH]2)NC(=O)[C@H]([C@@H](C)O)NC(=O)[C@H](CCCNC(=N)N)NC(=O)[C@H](CO)NC3=O)NC(=O)[C@H](CCCCN)NC(=O)[C@H](CC(=O)O)NC(=O)[C@H](CC(N)=O)NC(=O)[C@H](CC(=O)O)NC(=O)[C@@H]2CCCN2C1=O` (H-ACLGFMRKCIPDNDKCCRPNLVCSRTHKWCKYVF-NH2; disulfide 2-17, 9-23, 16-30) was tested. Which pIC50 did it give?
Answer: < 5.30

Question: `CC[C@H](C)[C@@H]1NC(=O)[C@@H]2CSSC[C@@H]3NC(=O)[C@H](C(C)C)NC(=O)[C@H](CC(C)C)NC(=O)[C@H](CC(N)=O)NC(=O)[C@@H]4CCCN4C(=O)[C@H](CCCNC(=N)N)NC(=O)[C@H](CSSC[C@H](NC(=O)[C@@H](N)CC(=O)O)C(=O)N[C@@H](CC(C)C)C(=O)N[C@@H](C)C(=O)N[C@@H](Cc4ccccc4)C(=O)N[C@@H](CCSC)C(=O)N[C@@H](CCCNC(=N)N)C(=O)N[C@@H](CCCCN)C(=O)N2)NC(=O)[C@H](CSSC[C@@H](C(=O)N[C@@H](CCCCN)C(=O)N[C@@H](Cc2ccc(O)cc2)C(=O)N[C@H](C(=O)N[C@@H](Cc2ccccc2)C(N)=O)C(C)C)NC(=O)[C@H](Cc2c[nH]c4ccccc24)NC(=O)[C@H](CCCCN)NC(=O)[C@H](Cc2cnc[nH]2)NC(=O)[C@H]([C@@H](C)O)NC(=O)[C@H](CCCNC(=N)N)NC(=O)[C@H](CO)NC3=O)NC(=O)[C@H](CCCCN)NC(=O)[C@H](CC(=O)O)NC(=O)[C@H](CC(N)=O)NC(=O)[C@H](CC(=O)O)NC(=O)[C@@H]2CCCN2C1=O` (H-DCLAFMRKCIPDNDKCCRPNLVCSRTHKWCKYVF-NH2; disulfide 2-17, 9-23, 16-30) was tested. Which pIC50 did it give?
Answer: < 5.30

Question: With `CC[C@H](C)[C@@H]1NC(=O)[C@@H]2CSSC[C@@H]3NC(=O)[C@H](C(C)C)NC(=O)[C@H](CC(C)C)NC(=O)[C@H](CC(N)=O)NC(=O)[C@@H]4CCCN4C(=O)[C@H](CCCNC(=N)N)NC(=O)[C@H](CSSC[C@H](NC(=O)[C@@H](N)CC(=O)O)C(=O)N[C@@H](CC(C)C)C(=O)NCC(=O)N[C@@H](C4CCCC4)C(=O)N[C@@H](CCSC)C(=O)N[C@@H](CCCNC(=N)N)C(=O)N[C@@H](CCCCN)C(=O)N2)NC(=O)[C@H](CSSC[C@@H](C(=O)N[C@@H](CCCCN)C(=O)N[C@@H](Cc2ccc(O)cc2)C(=O)N[C@H](C(=O)N[C@@H](Cc2ccccc2)C(N)=O)C(C)C)NC(=O)[C@H](Cc2c[nH]c4ccccc24)NC(=O)[C@H](CCCCN)NC(=O)[C@H](Cc2cnc[nH]2)NC(=O)[C@H]([C@@H](C)O)NC(=O)[C@H](CCCNC(=N)N)NC(=O)[C@H](CO)NC3=O)NC(=O)[C@H](CCCCN)NC(=O)[C@H](CC(=O)O)NC(=O)[C@H](CC(N)=O)NC(=O)[C@H](CC(=O)O)NC(=O)[C@@H]2CCCN2C1=O` as the molecule, how does the pIC50 read?
Answer: < 5.00

Question: How did the pIC50 turn out when `CC[C@H](C)[C@@H]1NC(=O)[C@@H]2CSSC[C@@H]3NC(=O)[C@H](C(C)C)NC(=O)[C@H](CC(C)C)NC(=O)[C@H](CC(N)=O)NC(=O)[C@@H]4CCCN4C(=O)[C@H](CCCNC(=N)N)NC(=O)[C@H](CSSC[C@H](NC(=O)[C@H](CC(=O)O)NC(=O)[C@H](C)N)C(=O)N[C@@H](CC(C)C)C(=O)NCC(=O)N[C@@H](Cc4ccccc4)C(=O)N[C@@H](CCSC)C(=O)N[C@@H](CCCNC(=N)N)C(=O)N[C@@H](CCCCN)C(=O)N2)NC(=O)[C@H](CSSC[C@@H](C(=O)N[C@@H](CCCCN)C(=O)N[C@@H](Cc2ccc(O)cc2)C(=O)N[C@H](C(=O)N[C@@H](Cc2ccccc2)C(N)=O)C(C)C)NC(=O)[C@H](Cc2c[nH]c4ccccc24)NC(=O)[C@H](CCCCN)NC(=O)[C@H](Cc2cnc[nH]2)NC(=O)[C@H]([C@@H](C)O)NC(=O)[C@H](CCCNC(=N)N)NC(=O)[C@H](CO)NC3=O)NC(=O)[C@H](CCCCN)NC(=O)[C@H](CC(=O)O)NC(=O)[C@H](CC(N)=O)NC(=O)[C@H](CC(=O)O)NC(=O)[C@@H]2CCCN2C1=O` was run?
Answer: < 5.30

Question: How did the pIC50 turn out when `CCCC[C@@H]1NC(=O)[C@H](Cc2ccccc2)NC(=O)CNC(=O)[C@H](CC(C)C)NC(=O)[C@@H](NC(=O)[C@@H](N)CC(=O)O)CSSC[C@@H]2NC(=O)[C@@H]3CSSC[C@@H](C(=O)N[C@@H](CCCCN)C(=O)N[C@@H](Cc4ccc(O)cc4)C(=O)N[C@H](C(=O)N[C@@H](Cc4ccccc4)C(N)=O)C(C)C)NC(=O)[C@H](Cc4c[nH]c5ccccc45)NC(=O)[C@H](CCCCN)NC(=O)[C@H](Cc4cnc[nH]4)NC(=O)[C@H]([C@@H](C)O)NC(=O)[C@H](CCCNC(=N)N)NC(=O)[C@H](CO)NC(=O)[C@H](CSSC[C@H](NC(=O)[C@H](CCCCN)NC(=O)[C@H](CCCNC(=N)N)NC1=O)C(=O)N[C@@H]([C@@H](C)CC)C(=O)N1CCC[C@H]1C(=O)N[C@@H](CC(=O)O)C(=O)N[C@@H](CC(N)=O)C(=O)N[C@@H](CC(=O)O)C(=O)N[C@@H](CCCCN)C(=O)N3)NC(=O)[C@H](C(C)C)NC(=O)[C@H](CC(C)C)NC(=O)[C@H](CC(N)=O)NC(=O)[C@@H]1CCCN1C(=O)[C@H](CCCNC(=N)N)NC2=O` was run?
Answer: 5.96

Question: `CC[C@H](C)[C@@H]1NC(=O)[C@@H]2CSSC[C@@H]3NC(=O)[C@H](C(C)C)NC(=O)[C@H](CC(C)C)NC(=O)[C@H](CC(N)=O)NC(=O)[C@@H]4CCCN4C(=O)[C@H](CCCNC(=N)N)NC(=O)[C@H](CSSC[C@H](NC(=O)[C@@H](N)CC(=O)O)C(=O)N[C@@H](CC(C)C)C(=O)NCC(=O)N[C@@H](Cc4ccccc4)C(=O)N[C@@H](CCSC)C(=O)N[C@@H](CCCNC(=N)N)C(=O)N[C@@H](CCCCN)C(=O)N2)NC(=O)[C@H](CSSC[C@@H](C(=O)N[C@@H](CCCCN)C(=O)N[C@@H](Cc2ccc(O)cc2)C(=O)N[C@H](C(=O)N[C@@H](Cc2ccccc2)C(N)=O)C(C)C)NC(=O)[C@H](Cc2c[nH]c4ccccc24)NC(=O)[C@H](CCCCN)NC(=O)[C@H](Cc2cnc[nH]2)NC(=O)[C@H]([C@@H](C)O)NC(=O)[C@H](CCCNC(=N)N)NC(=O)[C@H](C)NC3=O)NC(=O)[C@H](CCCCN)NC(=O)[C@H](CC(=O)O)NC(=O)[C@H](CC(N)=O)NC(=O)[C@H](CC(=O)O)NC(=O)[C@@H]2CCCN2C1=O` (H-DCLGFMRKCIPDNDKCCRPNLVCARTHKWCKYVF-NH2; disulfide 2-17, 9-23, 16-30) was tested. Which pIC50 did it give?
Answer: < 5.33

Question: With `CC[C@H](C)[C@@H]1NC(=O)[C@@H]2CSSC[C@@H]3NC(=O)[C@H](C(C)C)NC(=O)[C@H](CC(C)C)NC(=O)[C@H](CC(N)=O)NC(=O)[C@@H]4CCCN4C(=O)[C@H](CCCNC(=N)N)NC(=O)[C@H](CSSC[C@H](NC(=O)[C@@H](N)CC(=O)O)C(=O)N[C@@H](CC(C)C)C(=O)NCC(=O)N[C@@H](Cc4ccccc4)C(=O)N[C@@H](CCSC)C(=O)N[C@@H](CCCNC(=N)N)C(=O)N[C@@H](CCCCN)C(=O)N2)NC(=O)[C@H](CSSC[C@@H](C(=O)N[C@@H](CCCCN)C(=O)N[C@@H](C)C(=O)N[C@H](C(=O)N[C@@H](Cc2ccccc2)C(N)=O)C(C)C)NC(=O)[C@H](Cc2c[nH]c4ccccc24)NC(=O)[C@H](CCCCN)NC(=O)[C@H](Cc2cnc[nH]2)NC(=O)[C@H]([C@@H](C)O)NC(=O)[C@H](CCCNC(=N)N)NC(=O)[C@H](CO)NC3=O)NC(=O)[C@H](CCCCN)NC(=O)[C@H](CC(=O)O)NC(=O)[C@H](CC(N)=O)NC(=O)[C@H](CC(=O)O)NC(=O)[C@@H]2CCCN2C1=O` (H-DCLGFMRKCIPDNDKCCRPNLVCSRTHKWCKAVF-NH2; disulfide 2-17, 9-23, 16-30) as the molecule, how does the pIC50 read?
Answer: < 5.30

Question: With `CC[C@H](C)[C@@H]1NC(=O)[C@@H]2CSSC[C@@H]3NC(=O)[C@H](C(C)C)NC(=O)[C@H](CC(C)C)NC(=O)[C@H](CC(N)=O)NC(=O)[C@@H]4CCCN4C(=O)[C@H](CCCNC(=N)N)NC(=O)[C@H](CSSC[C@H](NC(=O)[C@@H](N)CC(=O)O)C(=O)N[C@@H](CC(C)C)C(=O)NCC(=O)N[C@@H](Cc4ccccc4)C(=O)N[C@@H](CCSC)C(=O)N[C@@H](CCCNC(=N)N)C(=O)N[C@@H](CCCCN)C(=O)N2)NC(=O)[C@H](CSSC[C@@H](C(=O)N[C@@H](CCCCN)C(=O)N[C@@H](Cc2ccc(O)cc2)C(=O)N[C@H](C(=O)N[C@@H](Cc2ccccc2)C(N)=O)C(C)C)NC(=O)[C@H](Cc2c[nH]c4ccccc24)NC(=O)[C@H](CCCCN)NC(=O)[C@H](Cc2cnc[nH]2)NC(=O)[C@H](CCCNC(=N)N)NC(=O)[C@H](CCCNC(=N)N)NC(=O)[C@H](CO)NC3=O)NC(=O)[C@H](CCCCN)NC(=O)[C@H](CC(=O)O)NC(=O)[C@H](CC(N)=O)NC(=O)[C@H](CC(=O)O)NC(=O)[C@@H]2CCCN2C1=O` (H-DCLGFMRKCIPDNDKCCRPNLVCSRRHKWCKYVF-NH2; disulfide 2-17, 9-23, 16-30) as the molecule, how does the pIC50 read?
Answer: 6.30
